Measured values as given in patent US20230241071A1, “COMBINATION TREATMENT OF LIVER DISORDERS” (Terns Pharmaceuticals, Inc., priority 2021, published 2023).
pIC50: −log10 of the molar value. Entries after “also recorded” stand apart in the source; their conditions may differ.

Experiments:
THR-β = biological target: T1, THR-β (Homo sapiens, UniProt P10828); test: Binding activity to the thyroxine receptor beta
T1 sequence (P10828 1-461): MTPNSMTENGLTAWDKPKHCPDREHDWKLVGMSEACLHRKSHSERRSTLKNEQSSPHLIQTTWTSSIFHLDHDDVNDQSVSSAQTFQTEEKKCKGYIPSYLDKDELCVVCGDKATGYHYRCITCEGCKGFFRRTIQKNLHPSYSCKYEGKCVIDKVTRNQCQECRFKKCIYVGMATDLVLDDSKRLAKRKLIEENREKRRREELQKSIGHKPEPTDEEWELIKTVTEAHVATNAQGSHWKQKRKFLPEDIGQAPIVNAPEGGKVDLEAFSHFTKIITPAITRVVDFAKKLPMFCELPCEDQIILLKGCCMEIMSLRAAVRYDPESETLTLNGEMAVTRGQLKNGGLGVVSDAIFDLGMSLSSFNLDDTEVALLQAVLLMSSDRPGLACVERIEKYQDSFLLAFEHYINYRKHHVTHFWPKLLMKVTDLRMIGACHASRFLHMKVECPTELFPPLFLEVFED

[1] = system: SHBG, Apo B and serum lipids; test: Single-ascending dose trial of Compound 2: serum PD markers; type: in vivo, human; design: LDL-c change from baseline / HDL-c change from baseline / TC change from baseline / Apo B change from baseline: unit not given here
Protocol: Urine samples for Compound 2 concentration and PK sampling were collected pre-dose and at the following timepoints: 0-6 hours, 6-12 hours, 12-24 hours, and 24-48 hours. PK parameters were estimated via noncompartmental methods using Phoenix® WinNonlin® (Certara, LP, Princeton, N.J.). Concentrations of serum pharmacodynamic (PD) biomarkers apolipoprotein B (Apo B) and sex hormone binding globulin (SHBG) were measured using an immunoassay and serum lipids were determined using spectrophotometry.
PD sampling was performed pre-dose, and 48 hours and 72 hours post-dose. Percent change from baseline for PD markers were calculated using an ANCOVA model with percent change from baseline as dependent variable, treatment group as fixed effect, and baseline as covariate. Analyses used observed data only without imputation for missing data.

[2] = Multiple-ascending dose trial of Compound 1 in healthy participants: safety and PK; type: in vivo, human; conditions: for Cmax / Tmax / AUC(0-t) / half-life: human, plasma; for Cmax / AUC(0-t): mean (CV %); for Tmax / half-life: median (min, max)
Protocol: A multiple-ascending dose clinical trial of Compound 1 was performed.

[3] = Day 3 after single dose 3 mg (n = 6)
[4] = Day 3 after single dose 10 mg (n = 6)
[5] = Day 3 after single dose 30 mg (n = 6)
[6] = Day 3 after single dose 60 mg (n = 6)
[7] = 10 mg, 10 mg QD, Last day (of 14)

N#Cc1nn(-c2cc(Cl)c(Oc3n[nH]c(=O)c4ccccc34)c(Cl)c2)c(=O)[nH]c1=O [Compound 2, 2-(3,5-dichloro-4-((4-oxo-3,4-dihydrophthalazin-1-yl)oxy)phenyl)-3,5-dioxo-2,3,4,5-tetrahydro-1,2,4-triazine-6-carbonitrile]
THR-α/-β selectivity (THR-β; ratio of binding IC50): >58.8 factor | pIC50 (THR-β; read-out: IC50 THR-β binding force): 6.77 | LDL-c, total cholesterol, and Apo-B ([1]; Day 3 after single dose): Dose-dependent decreases | Apo B LSM % change [1, 3]: −2.7% | Apo B change from baseline [1, 3]: −1.5 | HDL-c LSM % change [1, 3]: 2.4% | HDL-c change from baseline [1, 3]: 0.87 | LDL-c LSM % change [1, 3]: −3.1% | LDL-c change from baseline [1, 3]: −3.98 | SHBG LSM % change [1, 3]: 6.3% | SHBG change from baseline [1, 3]: 0.20 nmol/L | TC LSM % change [1, 3]: −0.88% | TC change from baseline [1, 3]: −1.85 | Apo B LSM % change [1, 4]: −6.0% | Apo B change from baseline [1, 4]: −5.6 | HDL-c LSM % change [1, 4]: −1.0% | HDL-c change from baseline [1, 4]: −1.1 | LDL-c LSM % change [1, 4]: 0.70% | LDL-c change from baseline [1, 4]: 0.68 | SHBG LSM % change [1, 4]: 31.3% | SHBG change from baseline [1, 4]: 15.8 nmol/L | TC LSM % change [1, 4]: −0.84% | TC change from baseline [1, 4]: −1.93 | Apo B LSM % change [1, 5]: −11.0% | Apo B change from baseline [1, 5]: −11.5 | HDL-c LSM % change [1, 5]: −12.1% | HDL-c change from baseline [1, 5]: −6.1 | LDL-c LSM % change [1, 5]: −12.5% | LDL-c change from baseline [1, 5]: −15.7 | SHBG LSM % change [1, 5]: 16.5% | SHBG change from baseline [1, 5]: 6.0 nmol/L | TC LSM % change [1, 5]: −11.84% | TC change from baseline [1, 5]: −24.14 | Apo B LSM % change [1, 6]: −15.75% | Apo B change from baseline [1, 6]: −13.9 | SHBG LSM % change [1, 6]: 13.8% | SHBG change from baseline [1, 6]: 5.05 nmol/L | triglyceride levels ([1]; after a single dose): No significant changes | SHBG relative to placebo ([1]; single doses of ≥10 mg): Significant increases

COC1CCN(c2ncc(OC/C(=C/F)CN)cn2)CC1 [Compound 1, (E)-3-fluoro-2-(((2-(4-methoxypiperidin-1-yl)pyrimidin-5-yl)oxy)methyl)prop-2-en-1-amine]
Subject incidence of TEAEs considered possibly treatment-related ([2]; 1 mg QD 7 days (n = 6)): 1 (16.7) n (%) | Subject incidence of any TEAE ([2]; 1 mg QD 7 days (n = 6)): 2 (33.3) n (%) | TEAE frequency: Back pain ([2]; 1 mg QD 7 days (n = 6)): 0 | TEAE frequency: Catheter site inflammation ([2]; 1 mg QD 7 days (n = 6)): 0 | TEAE frequency: Contusion ([2]; 1 mg QD 7 days (n = 6)): 0 | TEAE frequency: Dermatitis contact ([2]; 1 mg QD 7 days (n = 6)): 1 (16.7) | TEAE frequency: Diarrhea ([2]; 1 mg QD 7 days (n = 6)): 0 | TEAE frequency: Dizziness ([2]; 1 mg QD 7 days (n = 6)): 1 (16.7) | TEAE frequency: Medical device site reaction ([2]; 1 mg QD 7 days (n = 6)): 0 | TEAE frequency: Rhinitis ([2]; 1 mg QD 7 days (n = 6)): 0 | TEAE frequency: headache ([2]; 1 mg QD 7 days (n = 6)): 1 (12.5) | Subject incidence of TEAEs considered possibly treatment-related ([2]; 4 mg QD 7 days (n = 6)): 0 n (%) | Subject incidence of any TEAE ([2]; 4 mg QD 7 days (n = 6)): 2 (33.3) n (%) | TEAE frequency: Back pain ([2]; 4 mg QD 7 days (n = 6)): 0 | TEAE frequency: Catheter site inflammation ([2]; 4 mg QD 7 days (n = 6)): 0 | TEAE frequency: Contusion ([2]; 4 mg QD 7 days (n = 6)): 0 | TEAE frequency: Dermatitis contact ([2]; 4 mg QD 7 days (n = 6)): 2 (33.3) | TEAE frequency: Diarrhea ([2]; 4 mg QD 7 days (n = 6)): 0 | TEAE frequency: Dizziness ([2]; 4 mg QD 7 days (n = 6)): 0 | TEAE frequency: Medical device site reaction ([2]; 4 mg QD 7 days (n = 6)): 0 | TEAE frequency: Rhinitis ([2]; 4 mg QD 7 days (n = 6)): 0 | TEAE frequency: headache ([2]; 4 mg QD 7 days (n = 6)): 0 | time to steady state ([2]; 10 mg QD): 7 days | Subject incidence of TEAEs considered possibly treatment-related ([2]; 10 mg QD 14 days (n = 6)): 0 n (%) | Subject incidence of any TEAE ([2]; 10 mg QD 14 days (n = 6)): 6 (100) n (%) | TEAE frequency: Back pain ([2]; 10 mg QD 14 days (n = 6)): 0 | TEAE frequency: Catheter site inflammation ([2]; 10 mg QD 14 days (n = 6)): 0 | TEAE frequency: Contusion ([2]; 10 mg QD 14 days (n = 6)): 0 | TEAE frequency: Dermatitis contact ([2]; 10 mg QD 14 days (n = 6)): 0 | TEAE frequency: Diarrhea ([2]; 10 mg QD 14 days (n = 6)): 0 | TEAE frequency: Dizziness ([2]; 10 mg QD 14 days (n = 6)): 0 | TEAE frequency: Medical device site reaction ([2]; 10 mg QD 14 days (n = 6)): 6 (100) | TEAE frequency: Rhinitis ([2]; 10 mg QD 14 days (n = 6)): 1 (16.7) | TEAE frequency: headache ([2]; 10 mg QD 14 days (n = 6)): 0 | half-life versus dose ([2]; 1, 4, 10 mg QD): increased with dose | plasma PK exposure, dose proportionality ([2]; between dose groups on Day 1): greater than dose proportional | Cmax ([2]; 1 mg, 1 mg QD, Day 1): 0.568 ng/mL | Tmax ([2]; 1 mg, 1 mg QD, Day 1): 1.53 h | AUC(0-t) ([2]; 1 mg, 1 mg QD, Last day (of 7)): 13.3 ng·h/mL | Cmax ([2]; 1 mg, 1 mg QD, Last day (of 7)): 2.75 ng/mL | Tmax ([2]; 1 mg, 1 mg QD, Last day (of 7)): 2.51 h | AUC(0-t) ([2]; 4 mg, 4 mg QD, Day 1): 17.1 ng·h/mL | Cmax ([2]; 4 mg, 4 mg QD, Day 1): 5.11 ng/mL | Tmax ([2]; 4 mg, 4 mg QD, Day 1): 2.02 h | AUC(0-t) ([2]; 4 mg, 4 mg QD, Last day (of 7)): 198 ng·h/mL | Cmax ([2]; 4 mg, 4 mg QD, Last day (of 7)): 18.6 ng/mL | Tmax ([2]; 4 mg, 4 mg QD, Last day (of 7)): 3.03 h | AUC(0-t) ([2]; 10 mg, 10 mg QD, Day 1): 102 ng·h/mL | Cmax ([2]; 10 mg, 10 mg QD, Day 1): 17.7 ng/mL | Tmax ([2]; 10 mg, 10 mg QD, Day 1): 1.9 h | AUC(0-t) [2, 7]: 656 ng·h/mL | Cmax [2, 7]: 47.5 ng/mL | Tmax [2, 7]: 3.98 h | half-life ([2]; 1 mg QD, Last day (of 7)): 2.27 h | half-life ([2]; 4 mg QD, Last day (of 7)): 6.71 h | half-life ([2]; 10 mg QD, Last day (of 14)): 13.3 h | Subject incidence of TEAEs considered possibly treatment-related ([2]; overall Compound 1 (n = 18)): 1 (5.6) n (%) | Subject incidence of any TEAE ([2]; overall Compound 1 (n = 18)): 10 (55.6) n (%) | TEAE frequency: Back pain ([2]; overall Compound 1 (n = 18)): 0 | TEAE frequency: Catheter site inflammation ([2]; overall Compound 1 (n = 18)): 0 | TEAE frequency: Contusion ([2]; overall Compound 1 (n = 18)): 0 | TEAE frequency: Dermatitis contact ([2]; overall Compound 1 (n = 18)): 3 (16.7) | TEAE frequency: Diarrhea ([2]; overall Compound 1 (n = 18)): 0 | TEAE frequency: Dizziness ([2]; overall Compound 1 (n = 18)): 1 (5.6) | TEAE frequency: Medical device site reaction ([2]; overall Compound 1 (n = 18)): 6 (33.3) | TEAE frequency: Rhinitis ([2]; overall Compound 1 (n = 18)): 1 (5.6) | TEAE frequency: headache ([2]; overall Compound 1 (n = 18)): 1 (5.6) | safety and tolerability ([2]; up to 10 mg QD for 14 days): mild (grade 1); also recorded: safe and well tolerated
